Results: patent US20250230193A1, “CYCLIC COMPOUND HAVING SELECTIVE KRAS INHIBITORY EFFECT ON HRAS AND NRAS” (CHUGAI SEIYAKU KABUSHIKI KAISHA, priority 2022, published 2025)

Assays:
[1] = molecular target: GDP-bound HRAS wild-type protein (Homo sapiens, UniProt P01112); experiment: Binding to HRAS by surface plasmon resonance (SPR), Single Cycle Kinetics; details: for HRAS/KRAS (ratio of KD value with respect to HRAS to KD value with respect to KRAS) / HRAS/KRAS (ratio of KD value for HRAS to KD value for KRAS): GDP-bound HRAS wild-type vs GDP-bound KRAS wild-type
Sequence of GDP-bound HRAS wild-type protein (P01112 whole entry): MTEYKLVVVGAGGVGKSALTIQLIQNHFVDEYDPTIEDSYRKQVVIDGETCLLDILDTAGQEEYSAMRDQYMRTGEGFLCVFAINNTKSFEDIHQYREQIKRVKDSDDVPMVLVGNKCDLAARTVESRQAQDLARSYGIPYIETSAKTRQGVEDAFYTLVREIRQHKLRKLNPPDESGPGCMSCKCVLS

[2] = molecular target: GDP-bound NRAS wild-type protein (Homo sapiens, UniProt P01111); experiment: Binding to NRAS by surface plasmon resonance (SPR), Single Cycle Kinetics; details: for NRAS/KRAS (ratio of KD value with respect to NRAS to KD value with respect to KRAS) / NRAS/KRAS (ratio of KD value for NRAS to KD value for KRAS): GDP-bound NRAS wild-type vs GDP-bound KRAS wild-type
Sequence of GDP-bound NRAS wild-type protein (P01111 whole entry): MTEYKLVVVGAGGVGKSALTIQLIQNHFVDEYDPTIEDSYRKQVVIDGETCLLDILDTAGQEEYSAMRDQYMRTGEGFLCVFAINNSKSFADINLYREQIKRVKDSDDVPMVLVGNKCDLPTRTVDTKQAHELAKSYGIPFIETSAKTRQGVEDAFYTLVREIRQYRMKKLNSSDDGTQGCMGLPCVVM

[3] = SPR, GDP-bound wild-type proteins

SMILES: CCO[C@@H]1C[C@H]2C(=O)NC3(CCC3)C(=O)N(C)[C@@H](C3CCCC3)C(=O)N(C)[C@H](C(=O)N(C)C)CC(=O)N(C)[C@@H](CC)C(=O)N[C@@H]([C@@H](C)CC)C(=O)N(C)CC(=O)N(C)[C@H]3CCCCN(C3=O)[C@@H](Cc3ccc(C(F)(F)F)cc3)C(=O)N(C)CC(=O)N[C@@H](CCc3ccc4ccsc4c3)C(=O)N2C1 [PP0888]
- HRAS/KRAS (ratio of KD value with respect to HRAS to KD value with respect to KRAS) ([1]; KD ratio, SPR): B (a compound having 3 or more and less than 10 is denoted as B)
- NRAS/KRAS (ratio of KD value with respect to NRAS to KD value with respect to KRAS) ([2]; KD ratio, SPR): C (A compound having a KD ratio of 0.1 or more and less than 3 is denoted as C)

SMILES: CC[C@H](C)[C@@H]1NC(=O)[C@H](CC(C)C)N(C)C(=O)C[C@@H](C(=O)N(C)C)N(C)C(=O)[C@H](C2CCCC2)N(C)C(=O)C2(CC(C)(C)C2)NC(=O)CN(C)C(=O)[C@H](CCc2cc(F)c(C(F)(F)F)c(F)c2)NC(=O)CN(C)C(=O)[C@H](Cc2ccc(C(F)(F)F)cc2)N2CC/C=C\C[C@@H](C2=O)N(C)C(=O)CN(C)C1=O [PP1776]
- HRAS/KRAS (ratio of KD value for HRAS to KD value for KRAS) ([1]; KD ratio, SPR): A (a compound having 10 or more and less than 20 is denoted as A)
- NRAS/KRAS (ratio of KD value for NRAS to KD value for KRAS) ([2]; KD ratio, SPR): A (a compound having 10 or more and less than 20 is denoted as A)

SMILES: CCO[C@@H]1C[C@H]2C(=O)NC3(CCC3)C(=O)N(C)[C@@H](C(CC)CC)C(=O)N(C)[C@H](CC)CC(=O)N(C)[C@@H](CC)C(=O)N[C@@H]([C@@H](C)CC)C(=O)N(C)CC(=O)N(C)[C@H]3C/C=C\CCN(C3=O)[C@@H](Cc3ccc(C(F)(F)F)cc3)C(=O)N(C)CC(=O)N[C@@H](CCc3cc(F)c(C(F)(F)F)c(F)c3)C(=O)N2C1 [PP1624]
- HRAS/KRAS (ratio of KD value for HRAS to KD value for KRAS) ([1]; KD ratio, SPR): A (a compound having 10 or more and less than 20 is denoted as A)
- NRAS/KRAS (ratio of KD value for NRAS to KD value for KRAS) ([2]; KD ratio, SPR): A (a compound having 10 or more and less than 20 is denoted as A)

SMILES: CCCOC[C@H]1C(=O)N[C@@H]([C@@H](C)CC)C(=O)N2CCC[C@H]2C(=O)N(C)[C@H]2C/C=C\CCN(C2=O)[C@@H](Cc2ccc(C)cc2)C(=O)N(C)CC(=O)N[C@@H](CCc2cc(F)c(C(F)(F)F)c(F)c2)C(=O)N2C[C@H](C)C[C@H]2C(=O)NC2(CC(C)(C)C2)C(=O)N(C)[C@@H](C2CCCC2)C(=O)N(C)[C@H](C(=O)N(C)CC)CC(=O)N1C [PP2430]
- HRAS/KRAS (ratio of KD value with respect to HRAS to KD value with respect to KRAS) ([1]; SPR): A (a compound having 10 or more and less than 20 is denoted as A)
- NRAS/KRAS (ratio of KD value with respect to NRAS to KD value with respect to KRAS) ([2]; SPR): AA (a compound having 20 or more is denoted as AA)

SMILES: CCO[C@@H]1C[C@H]2C(=O)NC3(CCC3)C(=O)N(C)[C@@H](C3CCCC3)C(=O)N(C)[C@H](C(=O)N(C)C)CC(=O)N(C)[C@@H](CC(C)(C)C)C(=O)N[C@@H]([C@@H](C)CC)C(=O)N(C)CC(=O)N(C)[C@H]3C/C=C\CCN(C3=O)[C@@H](Cc3ccc(C(F)(F)F)cc3)C(=O)N(C)CC(=O)N[C@@H](CCc3cc(F)c(C(F)(F)F)c(F)c3)C(=O)N2C1 [PP1117]
- HRAS/KRAS (ratio of KD value with respect to HRAS to KD value with respect to KRAS) ([1]; KD ratio, SPR): A (a compound having 10 or more and less than 20 is denoted as A)
- NRAS/KRAS (ratio of KD value with respect to NRAS to KD value with respect to KRAS) ([2]; KD ratio, SPR): A (a compound having 10 or more and less than 20 is denoted as A)

SMILES: CCO[C@@H]1C[C@H]2C(=O)NC3(CCC3)C(=O)N(C)[C@@H](C3CCCC3)C(=O)N(C)[C@H](C(=O)N(C)C)CC(=O)N(C)[C@@H](CC3CCCC3)C(=O)N[C@@H]([C@@H](C)CC)C(=O)N(C)CC(=O)N(C)[C@H]3C/C=C\CCN(C3=O)[C@@H](Cc3ccc(C)cc3)C(=O)N(C)CC(=O)N[C@@H](CCc3cc(Cl)c(C(F)(F)F)c(Cl)c3)C(=O)N2C1 [PP2679]
- HRAS/KRAS (ratio of KD value with respect to GDP-bound HRAS wild-type protein to KD value with respect to KRAS) ([1]; class symbols): A (a compound having 10 or more and less than 20 is denoted as A)
- NRAS/KRAS (ratio of KD value with respect to GDP-bound NRAS wild-type protein to KD value with respect to KRAS) ([2]; class symbols): A (a compound having 10 or more and less than 20 is denoted as A)

SMILES: CCC[C@H]1C(=O)N[C@@H](C2CCCC2)C(=O)N(C)CC(=O)N(C)[C@H]2C/C=C\CCN(C2=O)[C@@H](Cc2ccc(C(F)(F)F)cc2)C(=O)N(C)CC(=O)N[C@@H](CCc2ccc(C(F)(F)F)c(Cl)c2)C(=O)N2CC3(CC3)C[C@H]2C(=O)NC2(CC(C)(C)C2)C(=O)N(C)[C@@H](C2CCCC2)C(=O)N(C)[C@H](C(=O)N(C)C)CC(=O)N1C [PP2986]
- HRAS/KRAS (ratio of KD value with respect to GDP-bound HRAS wild-type protein to KD value with respect to KRAS) [1, 3]: A (a compound having 10 or more and less than 20 is denoted as A)
- NRAS/KRAS (ratio of KD value with respect to GDP-bound NRAS wild-type protein to KD value with respect to KRAS) [2, 3]: AA (a compound having 20 or more is denoted as AA)
